IC50 data for 19 compounds are collected here from patent US20220389003A1, “4-SUBSTITUTED INDOLE AND INDAZOLE SULFONAMIDO DERIVATIVES AS PARG INHIBITORS” (IDEAYA BIOSCIENCES, INC., priority 2019, published 2022).

In assay [1] the test system is HCC1806-XRCC1 KD (knock down) cells. Description: Cellular viability assay (Cell Titer-Glo). Format: cell-based. The conditions noted are these: 96 h, HCC1806-shXRCC1 cells, 4 days of incubation, read-out: PARGi cell viability. The procedure: HCC1806-XRCC1 KD (knock down) cells were plated at 2000 cells/well in 96-well white plates with clear flat bottom. After 24 hours, the compounds of the disclosure were added starting at 30 μM for a 9-point dose response curve at 1:3 dilution. The compounds of the disclosure were added by Tecan digital dispenser excluding the outermost wells of the plate. All treatments were done in duplicates. After 4 days of incubation, 50 ul of Cell Titer-Glo (Promega) was added per well. After incubation with the reagent for 15 minutes, luminescence was read using a plate reader (TECAN). Average values of DMSO treated wells in a plate was calculated. All data points were normalized to that of the average DMSO value. The % of control for each sample compared to DMSO treated control samples. Curves are fit as % of control vs. log [compound concentration] using a 4 parameter inhibition model (Levenberg-Marquardt algorithm):
Fit=(A+((B−A)/(1+((C/x)^D))))
Background: In ATP-based viability assays light output follows the ATP content of the culture.

In assay [2] the target is T1, PARG (Homo sapiens, UniProt Q86W56). Description: Inhibition of PARG cellular assay (PAR foci in HeLa cells after MMS). Format: cell-based. Also on record: endogenous in cells; host or cells: HeLa. The conditions noted are these: compound 1 h then MMS 1 h. A digest of the protocol:
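HeLa cells pretreated with compound for 1 h, then given MMS for a further 1 h, fixed and immunostained for PAR polymer. High-content imaging quantified nuclear PAR foci intensity (PAR Foci IC50) and percent cells with foci signal >1.3 (PAR % positive IC50).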

For assay [3], the target named is T1, PARG. Put plainly: Inhibition of PARG enzymatic assay (TR-FRET enzymatic IC50 assay). The arrangement: purchased Peak Proteins. Format: biochemical. Particulars: hPARG 250 pM, biotinylated-PARylated PARP substrate 30 nM. A digest of the protocol:
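Compound preincubated 1 h with 250 pM His-tagged hPARG, then 30 nM biotinylated PARylated hPARP1 substrate added for 10 min; buffer 50 mM Tris-HCl pH 7.4, EDTA/EGTA, 1 mM DTT, 23° C. TR-FRET read after 1 h with anti-His ULight antibody and streptavidin-europium; inhibition scaled between DMSO and no-enzyme controls.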

T1 sequence (Q86W56 whole entry): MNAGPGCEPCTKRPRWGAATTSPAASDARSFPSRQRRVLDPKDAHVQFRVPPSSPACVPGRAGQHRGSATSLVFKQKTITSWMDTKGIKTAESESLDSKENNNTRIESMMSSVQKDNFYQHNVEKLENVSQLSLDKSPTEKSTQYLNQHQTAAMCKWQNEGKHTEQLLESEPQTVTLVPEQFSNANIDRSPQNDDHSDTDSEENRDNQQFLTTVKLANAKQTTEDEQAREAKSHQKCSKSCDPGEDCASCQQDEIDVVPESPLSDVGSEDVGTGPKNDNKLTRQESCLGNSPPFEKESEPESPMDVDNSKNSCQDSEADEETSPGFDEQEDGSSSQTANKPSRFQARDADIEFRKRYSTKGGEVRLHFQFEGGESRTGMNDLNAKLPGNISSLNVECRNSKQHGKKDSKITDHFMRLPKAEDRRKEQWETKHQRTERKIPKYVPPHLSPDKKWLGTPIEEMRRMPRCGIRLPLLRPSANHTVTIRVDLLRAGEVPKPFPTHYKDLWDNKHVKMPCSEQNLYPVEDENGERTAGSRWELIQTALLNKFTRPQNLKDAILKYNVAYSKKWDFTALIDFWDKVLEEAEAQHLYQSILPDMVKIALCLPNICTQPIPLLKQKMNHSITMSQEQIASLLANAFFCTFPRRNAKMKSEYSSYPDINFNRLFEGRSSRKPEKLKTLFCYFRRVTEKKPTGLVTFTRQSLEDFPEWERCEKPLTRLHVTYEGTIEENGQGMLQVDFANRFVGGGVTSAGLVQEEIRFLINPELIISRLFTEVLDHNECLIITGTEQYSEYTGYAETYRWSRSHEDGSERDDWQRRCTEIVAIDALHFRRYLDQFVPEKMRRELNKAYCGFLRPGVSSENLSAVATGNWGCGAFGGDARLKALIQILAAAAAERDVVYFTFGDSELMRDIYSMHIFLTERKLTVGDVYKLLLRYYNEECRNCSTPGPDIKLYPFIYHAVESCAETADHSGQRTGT

As for `COc1nccc(-c2cc(S(=O)(=O)NC3(C#N)CC3)cc3c2cnn3-c2nnc(C(F)F)s2)n1` [Example 21, 1-[({1-[5-(difluoromethyl)(1,3,4-thiadiazol-2-yl)]-4-(2-methoxypyrimidin-4-yl)-1H-indazol-6-yl}sulfonyl)amino]cyclopropanecarbonitrile], the IC50 was in the range of 1000 to 10000 nM in assay [1], 300 to 1000 nM against PARG [2] and 100 to 300 nM on PARG [3].

On to `CC1(NS(=O)(=O)c2cc(N3CCC4(CC3)COC4)c3cnn(-c4nnc(C(F)F)s4)c3c2)CC1` [Example 23, ({1-[5-(difluoromethyl)(1,3,4-thiadiazol-2-yl)]-4-(2-oxa-7-azaspiro[3.5]non-7-yl)(1H-indazol-6-yl)}sulfonyl)(methylcyclopropyl)amine], for which the IC50 was less than 1000 nM in assay [1], not above 100 nM at PARG [2] and not above 100 nM against PARG [3].

Turning to `CN(C)C(=O)N1CCN(c2cc(S(=O)(=O)NC3(C)CC3)cc3c2cnn3-c2nnc(C(F)F)s2)CC1` [Example 24, [4-(1-[5-(difluoromethyl)(1,3,4-thiadiazol-2-yl)]-6-{[(methylcyclopropyl)amino]sulfonyl}(1H-indazol-4-yl))piperazinyl]-N,N-dimethylcarboxamide], the results for the IC50 (in assay [1]; against PARG [2]; against PARG [3]) were less than 1000 nM, not above 100 nM and not above 100 nM, respectively.

As to `N#CC1(NS(=O)(=O)c2cc(N3CCC4(CC3)COC4)c3cnn(-c4nnc(C(F)F)s4)c3c2)CC1` [Example 25, 1-[({1-[5-(difluoromethyl)(1,3,4-thiadiazol-2-yl)]-4-(2-oxa-7-azaspiro[3.5]non-7-yl)-1H-indazol-6-yl}sulfonyl)amino]cyclopropanecarbonitrile], the IC50 was less than 1000 nM in assay [1], not above 100 nM on PARG [2] and not above 100 nM against PARG [3].

Take `C[C@@H]1CN(c2cc(S(=O)(=O)NC3(C#N)CC3)cc3c2cnn3-c2nnc(C(F)F)s2)CCO1` [Example 26, 1-[({4-((2R)-2-methylmorpholin-4-yl)-1-[5-(difluoromethyl)(1,3,4-thiadiazol-2-yl)]-1H-indazol-6-yl}sulfonyl)amino]cyclopropanecarbonitrile]: the IC50 is 1000 to 10000 nM in assay [1], 100 to 300 nM against PARG [2] and not above 100 nM at PARG [3].

With `N#CC1(NS(=O)(=O)c2cc(N3CCC(O)CC3)c3cnn(-c4nnc(C(F)F)s4)c3c2)CC1` [Example 27, 1-[({1-[5-(difluoromethyl)(1,3,4-thiadiazol-2-yl)]-4-(4-hydroxypiperidyl)-1H-indazol-6-yl}sulfonyl)amino]cyclopropanecarbonitrile], the IC50 is 1000 to 10000 nM in assay [1], 300 to 1000 nM at PARG [2] and not above 100 nM on PARG [3].

With `CC(C)C(=O)N1CCN(c2cc(S(=O)(=O)NC3(C#N)CC3)cc3c2ccn3-c2nnc(C(F)F)s2)CC1` [Example 28, 1-[({1-[5-(difluoromethyl)(1,3,4-thiadiazol-2-yl)]-4-[4-(2-methylpropanoyl)piperazinyl]indol-6-yl}sulfonyl)amino]cyclopropanecarbonitrile], the IC50 in assay [1] was less than 1000 nM; at PARG [2], not above 100 nM; against PARG [3], not above 100 nM.

Regarding `CCN(C)C(=O)N1CCN(c2cc(S(=O)(=O)NC3(C#N)CC3)cc3c2cnn3-c2nnc(C(F)F)s2)CC1` [Example 32, [4-(1-[5-(difluoromethyl)(1,3,4-thiadiazol-2-yl)]-6-{[(cyanocyclopropyl)amino]sulfonyl}(1H-indazol-4-yl))piperazinyl]-N-ethyl-N-methylcarboxamide], the IC50 in assay [1] was less than 1000 nM; at PARG [2] it was not above 100 nM; at PARG [3], not above 100 nM.

As to `N#CC1(NS(=O)(=O)c2cc(N3CCN(C(=O)N4CCC4)CC3)c3cnn(-c4nnc(C(F)F)s4)c3c2)CC1` [Example 33, 1-[({4-[4-(azetidinylcarbonyl)piperazinyl]-1-[5-(difluoromethyl)(1,3,4-thiadiazol-2-yl)]-1H-indazol-6-yl}sulfonyl)amino]cyclopropanecarbonitrile], the results for the IC50 (in assay [1]; against PARG [2]; against PARG [3]) were 1000 to 10000 nM, not above 100 nM and not above 100 nM, respectively.

Regarding `C[C@@H]1CN(c2cc(S(=O)(=O)NC3(C#N)CC3)cc3c2cnn3-c2nnc(C(F)F)s2)CCN1C(=O)N(C)C` [Example 35, [(2R)-4-(1-[5-(difluoromethyl)(1,3,4-thiadiazol-2-yl)]-6-{[(cyanocyclopropyl)amino]sulfonyl}(1H-indazol-4-yl))-2-methylpiperazinyl]-N,N-dimethylcarboxamide], the IC50 in assay [1] was less than 1000 nM; against PARG [2], not above 100 nM; against PARG [3], not above 100 nM.

Regarding `CC(C)C(=O)N1CCN(c2cc(S(=O)(=O)NC3(C#N)CC3)cc3c2cnn3-c2nnc(C(F)F)s2)CC1` [Example 38, 1-[({1-[5-(difluoromethyl)(1,3,4-thiadiazol-2-yl)]-4-[4-(2-methylpropanoyl)piperazinyl]-1H-indazol-6-yl}sulfonyl)amino]cyclopropanecarbonitrile], the IC50 in assay [1] was less than 1000 nM; against PARG [2], not above 100 nM; against PARG [3] it was not above 100 nM.

For the compound `CC(C)(C)C(=O)N1CCN(c2cc(S(=O)(=O)NC3(C#N)CC3)cc3c2cnn3-c2nnc(C(F)F)s2)CC1` [Example 39, 1-[({1-[5-(difluoromethyl)(1,3,4-thiadiazol-2-yl)]-4-[4-(2,2-dimethylpropanoyl)piperazinyl]-1H-indazol-6-yl}sulfonyl)amino]cyclopropanecarbonitrile], the IC50 is less than 1000 nM in assay [1], not above 100 nM at PARG [2] and not above 100 nM against PARG [3].

Turning to `CNC(=O)C1CCN(c2cc(S(=O)(=O)NC3(C#N)CC3)cc3c2cnn3-c2nnc(C(F)F)s2)CC1` [Example 40, [1-(1-[5-(difluoromethyl)(1,3,4-thiadiazol-2-yl)]-6-{[(cyanocyclopropyl)amino]sulfonyl}(1H-indazol-4-yl))(4-piperidyl)]-N-methylcarboxamide], the results for the IC50 (in assay [1]; against PARG [2]; against PARG [3]) were 10000 to 20000 nM, 1000 to 10000 nM and not above 100 nM, respectively.

Consider `N#CC1(NS(=O)(=O)c2cc(N3CCC4(CCO4)CC3)c3cnn(-c4nnc(C(F)F)s4)c3c2)CC1` [Example 41, 1-[({1-[5-(difluoromethyl)(1,3,4-thiadiazol-2-yl)]-4-(1-oxa-7-azaspiro[3.5]non-7-yl)-1H-indazol-6-yl}sulfonyl)amino]cyclopropanecarbonitrile], for which the IC50 in assay [1] lay in the range of 1000 to 10000 nM; on PARG [2], 300 to 1000 nM; against PARG [3] it was 100 to 300 nM.

As for `CN(C)C(=O)N1CCN(c2cc(S(=O)(=O)NC3(C#N)CC3)cc3c2cnn3-c2nnc(C(F)F)s2)CC1` [Example 43, [4-(1-[5-(difluoromethyl)(1,3,4-thiadiazol-2-yl)]-6-{[(cyanocyclopropyl)amino]sulfonyl}(1H-indazol-4-yl))piperazinyl]-N,N-dimethylcarboxamide], the IC50 in assay [1] is less than 1000 nM; against PARG [2], not above 100 nM; against PARG [3], not above 100 nM.

Take `N#CC1(NS(=O)(=O)c2cc(N3CCC4(CCCO4)CC3)c3cnn(-c4nnc(C(F)F)s4)c3c2)CC1` [Example 44, 1-[({1-[5-(difluoromethyl)(1,3,4-thiadiazol-2-yl)]-4-(1-oxa-8-azaspiro[4.5]dec-8-yl)-1H-indazol-6-yl}sulfonyl)amino]cyclopropanecarbonitrile]: the IC50 in assay [1] lay in the range of 1000 to 10000 nM; against PARG [2] it was 1000 to 10000 nM; at PARG [3], 300 to 1000 nM.

Consider `N#CC1(NS(=O)(=O)c2cc(N3CC4(COC4)C3)c3cnn(-c4nnc(C(F)F)s4)c3c2)CC1` [Example 45, 1-[({1-[5-(difluoromethyl)(1,3,4-thiadiazol-2-yl)]-4-(6-oxa-2-azaspiro[3.3]hept-2-yl)-1H-indazol-6-yl}sulfonyl)amino]cyclopropanecarbonitrile], for which the IC50 is 20000 to 30000 nM in assay [1], 300 to 1000 nM at PARG [2] and 100 to 300 nM against PARG [3].

Consider `CN1CCC2(CCN(c3cc(S(=O)(=O)NC4(C#N)CC4)cc4c3cnn4-c3nnc(C(F)F)s3)CC2)C1` [Example 46, 1-[({1-[5-(difluoromethyl)(1,3,4-thiadiazol-2-yl)]-4-(2-methyl-2,8-diazaspiro[4.5]dec-8-yl)-1H-indazol-6-yl}sulfonyl)amino]cyclopropanecarbonitrile], for which the IC50 lay in the range of 1000 to 10000 nM in assay [1], 1000 to 10000 nM on PARG [2] and 100 to 300 nM against PARG [3].

On to `N#CC1(NS(=O)(=O)c2cc(N3CCC(CO)CC3)c3cnn(-c4nnc(C(F)F)s4)c3c2)CC1` [Example 47, 1-[({1-[5-(difluoromethyl)(1,3,4-thiadiazol-2-yl)]-4-[4-(hydroxymethyl)piperidyl]-1H-indazol-6-yl}sulfonyl)amino]cyclopropanecarbonitrile], for which the IC50 is 1000 to 10000 nM in assay [1], 300 to 1000 nM against PARG [2] and not above 100 nM against PARG [3].
